Results: the NIST ThermoML archive (doi:10.1021/acs.jced.5b00597)
Values joined by “and” are separate entries in the source; they are usually repeats but may differ in a detail not shown here. Equal values may be shown once.

Experiment: molar heat capacity at constant pressure
Settings: Liquid, Flow calorimetry

FC(F)CC(F)(F)F [1,1,1,3,3-pentafluoropropane]
Settings	molar heat capacity at constant pressure
277.89 K, 518.3 kPa	170.11 J/K/mol
277.9 K, 519 kPa	171.31 J/K/mol
282.87 K, 509.6 kPa	171.72 J/K/mol
282.87 K, 511 kPa	172.65 J/K/mol
287.9 K, 513.9 kPa	173.46 J/K/mol
287.92 K, 512.5 kPa	173.46 J/K/mol and 171.85 J/K/mol
292.91 K, 518.1 kPa	179.09 J/K/mol
297.89 K, 514.6 kPa	177.61 J/K/mol and 177.21 J/K/mol
302.89 K, 517.2 kPa	178.42 J/K/mol
302.9 K, 518 kPa	179.09 J/K/mol
307.87 K, 519.5 kPa	181.23 J/K/mol
307.88 K, 504.1 kPa	181.1 J/K/mol
307.88 K, 514.4 kPa	182.17 J/K/mol [middle of 4 runs]
307.88 K, 808.1 kPa	181.5 J/K/mol
307.89 K, 517.9 kPa	182.71 J/K/mol
307.89 K, 518.2 kPa	181.77 J/K/mol
307.89 K, 522.2 kPa	181.63 J/K/mol
307.92 K, 415.8 kPa	180.7 J/K/mol
307.93 K, 520.4 kPa	182.71 J/K/mol
312.89 K, 514.5 kPa	181.77 J/K/mol
313.89 K, 520.4 kPa	180.96 J/K/mol
317.9 K, 522.2 kPa	183.24 J/K/mol
317.9 K, 522.6 kPa	181.9 J/K/mol
322.94 K, 518.4 kPa	185.66 J/K/mol
322.95 K, 517.7 kPa	184.85 J/K/mol and 184.58 J/K/mol
327.96 K, 806.4 kPa	187.13 J/K/mol
327.97 K, 808.9 kPa	185.92 J/K/mol
332.97 K, 815 kPa	189.41 J/K/mol
332.97 K, 816.5 kPa	187.8 J/K/mol
337.98 K, 810.3 kPa	190.62 J/K/mol
342.96 K, 817.2 kPa	192.22 J/K/mol
342.99 K, 813.6 kPa	192.49 J/K/mol
